According to patent US20170209434A1, “PROTEIN PHOSPHATASE 2A INHIBITORS FOR TREATING MYELODYSPLASTIC SYNDROMES” (priority 2014, published 2017):

Columns and labels:
[1] = tested on: non-del (5q) MDS; settings: cited from earlier work
[2] = tested on: del(5q) MDS patients; settings: cited from earlier work
[3] = tested on: Namalwa cells; test: Cell cycle analysis of Namalwa cells treated with LB-100; format: cell-based; settings: for G1 / G2/M / S / Percent G1: 24 hours
Procedure: FIG. 1 is a bar graph showing percent of Namalwa cells in G1 arrest 24 hours after treatment with 0.1 μM, 1.0 μM or 10 μM LB-100 dissolved in DMSO (grey) or MSG (black) compared to control and vehicle.
FIG. 2 is a bar graph showing percent of Namalwa cells in G1 arrest 24 hours after treatment with 0.1 μM, 1.0 μM or 10 μM LB-100 compared to control.

[4] = tested on: non-del(5q) MDS; test: Additional studies of efficacy in non-del(5q) MDS (Example 3); format: in vivo; settings: subject afflicted with non-del(5q) MDS
Procedure: (§1) Additional studies, similar to the aforementioned Phase I design, are conducted to evaluate the efficacy of LB-100, alone or in combination with lenalidomide, in patients with del(5q) MDS or non-del(5q) MDS.
An amount of LB-100 is administered to a subject afflicted with non-del(5q) MDS. […] An amount of LB-100 in combination with lenalidomide is administered to a subject afflicted with non-del(5q) MDS.

[5] = tested on: Non-del(5q) patient BM MNCs; test: Apoptosis of non-del(5q) patient BM MNCs; format: cell-based; settings: FIG. 5, 0.1-10 μM
[6] = tested on: MDS that is resistant to lenalidomide; test: Additional studies of efficacy in lenalidomide-resistant MDS (Example 3); format: in vivo
Procedure: as §1

[7] = tested on: del(5q) patient BM MNCs; test: Apoptosis of del(5q) patient BM MNCs; format: cell-based
Procedure: FIG. 6 is a bar graph showing percentage of primary BM MNCs from a Del(5q) patient undergoing apoptosis after treatment with 0.1 μM, 1.0 μM, or 10 μM lenalidomide (grey) or 0.1 μM, 1.0 μM, or 10 μM LB-100 (black), compared to a control.

[8] = target: protein phosphatase 2A (Homo sapiens, UniProt P67775); settings: cited from earlier work
Sequence of protein phosphatase 2A (P67775 whole entry): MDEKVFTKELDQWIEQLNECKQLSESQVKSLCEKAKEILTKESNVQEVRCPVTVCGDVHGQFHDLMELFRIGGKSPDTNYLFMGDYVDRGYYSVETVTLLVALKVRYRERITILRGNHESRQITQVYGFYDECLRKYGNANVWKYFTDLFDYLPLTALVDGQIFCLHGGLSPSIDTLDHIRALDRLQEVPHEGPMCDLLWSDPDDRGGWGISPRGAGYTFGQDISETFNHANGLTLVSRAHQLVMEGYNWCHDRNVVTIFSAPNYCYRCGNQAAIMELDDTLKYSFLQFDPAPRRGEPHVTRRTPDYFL

[9] = tested on: Namalwa cells; test: MTT assay, Namalwa cell proliferation; format: cell-based; settings: 72 hours
Procedure: (§2) FIG. 7A is a graph showing proliferation of HL60 cells 72 hours after treatment with 0.001 μM, 0.01 μM, 0.1 μM, 1.0 μM, 10 μM, or 100 μM LB-100 (grey) or 0.001 μM, 0.01 μM, 0.1 μM, 1.0 μM, 10 μM, or 100 μM lenalidomide (black), compared to control or vehicle. FIGS. 7B to 7C are graphs showing proliferation of Namalwa cells 72 hours after treatment with 0.001 μM, 0.01 μM, 0.1 μM, 1.0 μM, 10 μM, or 100 μM LB-100 (♦), 0.001 μM, 0.01 μM, 0.1 μM, 1.0 μM, 10 μM, or 100 μM lenalidomide (▪), or 0.001 μM, 0.01 μM, 0.1 μM, 1.0 μM, 10 μM, or 100 μM cantharidin (▴), compared to control or vehicle.
(§3) HL60 cells and U937 cells were compared (FIGS. 8A and 8B).

[10] = tested on: HL60 cells; test: MTT assay, HL60 cell proliferation; format: cell-based; settings: 72 hours, significant difference at 1 μM
Procedure: as §2, §3

[11] = tested on: del(5q) MDS; test: Additional studies of efficacy in del(5q) MDS (Example 3); format: in vivo; settings: subject afflicted with del(5q) MDS
Procedure: as §1
An amount of LB-100 is administered to a subject afflicted with del(5q) MDS. […] An amount of LB-100 in combination with lenalidomide is administered to a subject afflicted with del(5q) MDS.

[12] = tested on: Namalwa cells; test: Apoptosis of Namalwa cells; format: cell-based; settings: for Percent Apoptosis: dissolved in MSG
Procedure: FIG. 3 is a bar graph showing percentage of Namalwa cells undergoing apoptosis after treatment with 0.1 μM, 1.0 μM or 10 μM LB-100 dissolved in DMSO (grey) or MSG (black) compared to control and vehicle.
FIGS. 4A to 4D are a series of flow cytometry plots showing percentage of Namalwa cells undergoing apoptosis after treatment with control (FIG. 4A), 0.1 μM (FIG. 4B), 1.0 μM (FIG. 4C), or 10 μM (FIG. 4D) LB-100.

[13] = target: protein phosphatase 1; settings: cited from earlier work

Nc1cccc2c1CN(C1CCC(=O)NC1=O)C2=O (stereo not drawn) [Lenalidomide, lenalidomide]
transfusion independence (TI), % of patients [1]: 26% | transfusion independence (TI), % of patients ([2]; lower risk MDS patients with del(5q)): 67% | duration of response, median ([2]; patients with del5q MDS): 2.5 years

CN1CCN(C(=O)C2C(C(=O)O)[C@H]3CC[C@@H]2O3)CC1 (stereo partly drawn) [LB100]
G1 ([3]; 0.1 μM, dissolved in DMSO): 17.73% | G2/M ([3]; 0.1 μM, dissolved in DMSO): 16.51 | S ([3]; 0.1 μM, dissolved in DMSO): 65.76 | G1 ([3]; 0.1 uM, dissolved in MSG): 18.69% | G2/M ([3]; 0.1 uM, dissolved in MSG): 17.93 | S ([3]; 0.1 uM, dissolved in MSG): 63.37 | G1 ([3]; 1.0 μM, dissolved in DMSO): 18.38% | G2/M ([3]; 1.0 μM, dissolved in DMSO): 18.22 | S ([3]; 1.0 μM, dissolved in DMSO): 63.41 | G1 ([3]; 1.0 uM, dissolved in MSG): 41.48% | G2/M ([3]; 1.0 uM, dissolved in MSG): 6.96 | S ([3]; 1.0 uM, dissolved in MSG): 51.56 | G1 ([3]; 10 μM, dissolved in DMSO): 28.97% | G2/M ([3]; 10 μM, dissolved in DMSO): 8.9 | S ([3]; 10 μM, dissolved in DMSO): 62.13 | G1 ([3]; 10 uM, dissolved in MSG): 46.34% | G2/M ([3]; 10 uM, dissolved in MSG): 8.5 | S ([3]; 10 uM, dissolved in MSG): 45.15 | G2/M ([3]; Table 2, 0.1 μM): 12.06% | Percent G1 ([3]; Table 2, 0.1 μM): 24.01% | S ([3]; Table 2, 0.1 μM): 63.93% | G2/M ([3]; Table 2, 1.0 μM): 20.8% | Percent G1 ([3]; Table 2, 1.0 μM): 31.35% | S ([3]; Table 2, 1.0 μM): 47.85% | G2/M ([3]; Table 2, 10 μM): 6.13% | Percent G1 ([3]; Table 2, 10 μM): 51.18% | S ([3]; Table 2, 10 μM): 42.69% | G1 arrest, dose dependence (in words) ([3]; Table 2 and FIG. 2, 0.1-10 μM): led to G1 arrest in a dose-dependent fashion | G1 arrest (in words) ([3]; at 10 μM in DMSO): led to G1 arrest | G1 arrest (in words) ([3]; at 1 and 10 μM in MSG): led to G1 arrest | Efficacy in treating non-del(5q) MDS (in words) [4]: effective to treat | Apoptosis (in words) [5]: did not lead to apoptosis | Efficacy in treating MDS resistant to lenalidomide (in words) [6]: effective to treat | Apoptosis, dose dependence (in words) ([7]; FIG. 6, 0.1-10 μM): induced apoptosis in a dose dependent fashion | Apoptosis (in words) ([7]; at 1 μM): mild increase in apoptosis | Cytotoxicity compared with lenalidomide (in words) ([7]; at 10 μM): more cytotoxic than lenalidomide | PP2A inhibition (in words) [8]: greater potency than lenalidomide | Proliferation in comparison to control (in words) [9]: significant decrease in proliferation | Proliferation in comparison to treatment with lenalidomide (in words) [10]: significant decreased proliferation | Efficacy in treating del(5q) MDS (in words) [11]: effective to treat | Percent Apoptosis ([12]; 0.1 μM): 6.18% | Percent Apoptosis ([12]; 1.0 μM): 6.5% | Percent Apoptosis ([12]; 10 μM): 55.8% | Apoptosis (in words) ([12]; at 10 μM when dissolved in MSG): led to apoptosis

C=C1[C@@H](O)[C@@H]2O[C@]3(CC[C@H](/C=C/[C@@H](C)[C@@H]4CC(C)=C[C@@]5(O[C@H](C[C@@](C)(O)C(=O)O)CC[C@H]5O)O4)O3)CC[C@H]2O[C@@H]1[C@@H](O)C[C@H](C)[C@H]1O[C@@]2(CCCCO2)CC[C@H]1C [Okadaic acid, 9,10-Deepithio-9,10-didehydroacanthifolicin]
IC50 [13]: 3 to 15 nM | IC50 [8]: 0.1 to 1 nM | Selectivity over PP2B, PP2C and a range of other phosphatases (in words) [8]: highly selective

C[C@@]12C(=O)OC(=O)[C@]1(C)[C@H]1CC[C@@H]2O1 [cantharidin]
PP2A inhibition (in words) [8]: potent and selective inhibitor of PP2A
